One experiment concerns the target Melanocortin receptor 3 (Homo sapiens, UniProt P41968).
The target in experiment [1] is T1, Cholecystokinin receptor type A (Homo sapiens, UniProt P32238).
T1 sequence (P32238 whole entry): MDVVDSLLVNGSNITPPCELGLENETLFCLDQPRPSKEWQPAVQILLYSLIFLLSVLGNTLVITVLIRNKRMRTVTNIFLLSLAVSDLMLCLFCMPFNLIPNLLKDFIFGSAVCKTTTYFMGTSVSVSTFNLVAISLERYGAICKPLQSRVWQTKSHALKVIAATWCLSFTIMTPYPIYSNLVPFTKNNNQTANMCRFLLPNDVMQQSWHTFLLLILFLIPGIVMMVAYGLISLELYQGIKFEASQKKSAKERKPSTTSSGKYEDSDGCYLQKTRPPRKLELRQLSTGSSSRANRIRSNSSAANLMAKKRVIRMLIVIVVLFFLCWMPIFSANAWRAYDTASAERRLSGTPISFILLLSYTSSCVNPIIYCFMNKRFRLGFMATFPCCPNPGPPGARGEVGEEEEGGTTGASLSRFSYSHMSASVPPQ

The target in experiment [2] is T2, 5-hydroxytryptamine receptor 3A (Homo sapiens, UniProt P46098).
T2 sequence (P46098 whole entry): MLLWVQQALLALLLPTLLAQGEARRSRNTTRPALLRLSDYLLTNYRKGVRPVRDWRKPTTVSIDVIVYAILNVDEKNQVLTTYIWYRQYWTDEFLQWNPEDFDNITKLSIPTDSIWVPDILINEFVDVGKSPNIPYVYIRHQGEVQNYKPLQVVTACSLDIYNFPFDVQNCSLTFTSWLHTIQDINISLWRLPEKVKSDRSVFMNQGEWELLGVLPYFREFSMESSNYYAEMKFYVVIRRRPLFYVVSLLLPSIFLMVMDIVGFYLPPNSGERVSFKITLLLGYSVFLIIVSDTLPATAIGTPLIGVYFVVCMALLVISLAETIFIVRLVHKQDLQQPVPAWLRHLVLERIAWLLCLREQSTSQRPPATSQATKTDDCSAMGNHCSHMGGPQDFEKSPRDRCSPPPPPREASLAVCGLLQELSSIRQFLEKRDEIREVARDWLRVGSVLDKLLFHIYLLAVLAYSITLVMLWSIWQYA
The class given is functional.

For experiment [3], the target named is Sodium-dependent dopamine transporter (Homo sapiens, UniProt Q01959).
In the next experiment the target is T3, Glucocorticoid receptor (Homo sapiens, UniProt P04150).
T3 sequence (P04150 whole entry): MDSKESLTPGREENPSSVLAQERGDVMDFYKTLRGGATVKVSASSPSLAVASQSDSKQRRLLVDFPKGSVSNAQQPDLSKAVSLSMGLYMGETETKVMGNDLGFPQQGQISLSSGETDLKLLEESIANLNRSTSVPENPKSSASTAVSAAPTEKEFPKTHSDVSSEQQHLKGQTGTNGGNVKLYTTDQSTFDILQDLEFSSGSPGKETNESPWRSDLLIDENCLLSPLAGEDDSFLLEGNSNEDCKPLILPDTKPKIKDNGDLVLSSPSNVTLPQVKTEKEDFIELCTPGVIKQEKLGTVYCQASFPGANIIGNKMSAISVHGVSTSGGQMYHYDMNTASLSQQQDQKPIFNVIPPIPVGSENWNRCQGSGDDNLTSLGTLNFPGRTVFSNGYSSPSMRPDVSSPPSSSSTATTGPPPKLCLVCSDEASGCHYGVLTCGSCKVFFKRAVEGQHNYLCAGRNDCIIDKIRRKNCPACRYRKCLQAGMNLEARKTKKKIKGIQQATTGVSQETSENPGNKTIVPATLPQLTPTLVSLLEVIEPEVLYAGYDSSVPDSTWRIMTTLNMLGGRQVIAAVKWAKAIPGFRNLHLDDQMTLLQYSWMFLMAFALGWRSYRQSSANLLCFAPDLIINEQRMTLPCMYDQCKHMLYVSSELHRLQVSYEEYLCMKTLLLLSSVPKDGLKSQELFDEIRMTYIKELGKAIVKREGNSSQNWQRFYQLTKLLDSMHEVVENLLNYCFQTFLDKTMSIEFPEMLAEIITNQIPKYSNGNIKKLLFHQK

Experiment [4] concerns the target Sodium-dependent noradrenaline transporter (Homo sapiens, UniProt P23975).
Experiment [5] addresses T4, Neuropeptide Y receptor type 1 (Homo sapiens, UniProt P25929).
T4 sequence (P25929 whole entry): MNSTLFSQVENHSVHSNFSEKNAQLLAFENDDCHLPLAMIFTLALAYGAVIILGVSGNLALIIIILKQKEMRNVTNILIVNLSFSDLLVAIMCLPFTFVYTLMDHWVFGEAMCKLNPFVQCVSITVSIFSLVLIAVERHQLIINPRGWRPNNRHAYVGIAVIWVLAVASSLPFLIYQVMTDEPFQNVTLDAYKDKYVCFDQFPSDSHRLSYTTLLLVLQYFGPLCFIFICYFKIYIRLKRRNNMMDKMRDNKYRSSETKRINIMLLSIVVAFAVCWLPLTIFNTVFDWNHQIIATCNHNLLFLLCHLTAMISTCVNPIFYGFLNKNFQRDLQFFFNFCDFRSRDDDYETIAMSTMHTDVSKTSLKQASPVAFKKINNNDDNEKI

For the next experiment, the target named is Vasopressin V1a receptor (Homo sapiens, UniProt P37288).
Experiment [6] deals with T5, Alpha-1A adrenergic receptor (Homo sapiens, UniProt P35348).
T5 sequence (P35348 whole entry): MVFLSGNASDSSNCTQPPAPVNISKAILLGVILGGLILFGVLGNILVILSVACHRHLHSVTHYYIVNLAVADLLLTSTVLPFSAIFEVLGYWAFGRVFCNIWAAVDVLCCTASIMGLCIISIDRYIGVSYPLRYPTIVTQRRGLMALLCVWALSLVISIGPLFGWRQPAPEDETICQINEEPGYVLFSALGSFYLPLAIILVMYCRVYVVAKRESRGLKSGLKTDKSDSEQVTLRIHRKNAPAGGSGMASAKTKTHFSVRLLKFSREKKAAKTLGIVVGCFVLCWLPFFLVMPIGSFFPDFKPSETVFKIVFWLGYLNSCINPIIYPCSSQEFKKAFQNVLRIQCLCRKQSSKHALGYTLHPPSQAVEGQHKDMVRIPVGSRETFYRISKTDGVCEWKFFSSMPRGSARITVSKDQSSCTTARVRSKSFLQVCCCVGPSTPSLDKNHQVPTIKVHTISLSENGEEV
The class given is functional, cell-based.

Some results are limits rather than exact numbers.
Further: assay procedure not described here.

Sequence of Sodium-dependent dopamine transporter (Q01959 whole entry): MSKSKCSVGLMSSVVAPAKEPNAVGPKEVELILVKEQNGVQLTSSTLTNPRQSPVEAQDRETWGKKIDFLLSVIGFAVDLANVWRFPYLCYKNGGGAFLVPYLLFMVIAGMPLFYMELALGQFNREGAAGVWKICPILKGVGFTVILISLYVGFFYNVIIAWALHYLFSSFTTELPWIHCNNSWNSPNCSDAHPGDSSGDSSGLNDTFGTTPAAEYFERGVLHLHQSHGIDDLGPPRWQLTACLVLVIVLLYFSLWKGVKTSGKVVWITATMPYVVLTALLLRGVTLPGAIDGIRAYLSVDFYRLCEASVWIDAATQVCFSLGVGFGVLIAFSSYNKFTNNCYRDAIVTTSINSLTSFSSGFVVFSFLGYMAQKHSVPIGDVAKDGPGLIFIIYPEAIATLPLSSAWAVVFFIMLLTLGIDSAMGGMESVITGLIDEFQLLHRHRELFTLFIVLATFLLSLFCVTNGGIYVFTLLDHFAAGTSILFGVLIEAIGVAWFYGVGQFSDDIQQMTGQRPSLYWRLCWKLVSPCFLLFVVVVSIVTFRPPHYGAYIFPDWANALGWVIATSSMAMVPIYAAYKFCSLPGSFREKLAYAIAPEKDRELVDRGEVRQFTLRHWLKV
Sequence of Melanocortin receptor 3 (P41968 whole entry): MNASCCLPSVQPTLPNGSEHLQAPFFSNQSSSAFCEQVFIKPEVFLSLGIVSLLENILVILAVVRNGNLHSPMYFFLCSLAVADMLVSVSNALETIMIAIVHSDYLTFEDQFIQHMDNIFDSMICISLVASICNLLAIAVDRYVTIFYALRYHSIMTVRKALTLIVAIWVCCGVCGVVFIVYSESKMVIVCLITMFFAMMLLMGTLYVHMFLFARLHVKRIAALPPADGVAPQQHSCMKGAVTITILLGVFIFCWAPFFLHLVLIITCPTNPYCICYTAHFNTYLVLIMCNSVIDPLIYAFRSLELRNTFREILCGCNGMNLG
Sequence of Sodium-dependent noradrenaline transporter (P23975 whole entry): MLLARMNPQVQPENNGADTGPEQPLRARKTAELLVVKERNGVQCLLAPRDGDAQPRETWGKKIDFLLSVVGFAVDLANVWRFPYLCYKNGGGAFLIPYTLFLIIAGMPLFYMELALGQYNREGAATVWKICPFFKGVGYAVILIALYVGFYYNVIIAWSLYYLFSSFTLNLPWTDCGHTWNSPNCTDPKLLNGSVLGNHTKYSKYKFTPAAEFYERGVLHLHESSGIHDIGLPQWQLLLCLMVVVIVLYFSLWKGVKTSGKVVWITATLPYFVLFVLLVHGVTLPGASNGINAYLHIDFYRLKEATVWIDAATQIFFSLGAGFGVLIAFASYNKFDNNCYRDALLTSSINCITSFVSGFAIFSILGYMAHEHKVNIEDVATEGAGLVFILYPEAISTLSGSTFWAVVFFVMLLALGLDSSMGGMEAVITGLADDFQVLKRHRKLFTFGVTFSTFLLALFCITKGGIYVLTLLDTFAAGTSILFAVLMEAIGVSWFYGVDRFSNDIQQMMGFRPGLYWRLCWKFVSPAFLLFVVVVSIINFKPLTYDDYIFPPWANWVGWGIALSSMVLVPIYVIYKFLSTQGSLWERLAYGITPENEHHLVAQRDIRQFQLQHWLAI
Sequence of Vasopressin V1a receptor (P37288 whole entry): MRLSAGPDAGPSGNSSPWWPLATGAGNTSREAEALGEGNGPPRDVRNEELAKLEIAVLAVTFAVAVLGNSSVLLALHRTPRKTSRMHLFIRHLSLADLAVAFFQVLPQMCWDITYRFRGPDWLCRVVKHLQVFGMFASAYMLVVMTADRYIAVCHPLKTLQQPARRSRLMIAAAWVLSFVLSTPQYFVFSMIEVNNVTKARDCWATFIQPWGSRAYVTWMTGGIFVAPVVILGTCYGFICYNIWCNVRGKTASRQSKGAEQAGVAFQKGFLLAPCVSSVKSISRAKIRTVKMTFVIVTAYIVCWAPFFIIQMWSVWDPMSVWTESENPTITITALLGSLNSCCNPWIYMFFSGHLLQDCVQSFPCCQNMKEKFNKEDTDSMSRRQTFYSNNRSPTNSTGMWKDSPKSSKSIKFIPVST

For `O=C1c2cccc3c2[C@H](CCC3)CN1[C@@H]1CN2CCC1CC2` [PALONOSETRON], the AC50 (usually the midpoint of the concentration-response curve, whichever way the signal moves) on Melanocortin receptor 3 was above 30 µM; in [1], above 30 µM; in experiment [2], 0.0021 µM; in [3], above 30 µM; at Glucocorticoid receptor, above 30 µM; in [4], above 30 µM. Moreover, the AC50 (in [5]; at Vasopressin V1a receptor) was above 30 µM each time.
Consider `COc1cccc(C(=O)CCN[C@@H](C)[C@H](O)c2ccccc2)c1` [OXYFEDRINE], for which, in [6], the activity was half-maximal at 0.205 µM (AC50).
Take `Cc1cccc(C)c1NC(=O)CC12CCCN1CCC2` [PILSICAINIDE]: the AC50 (at Melanocortin receptor 3; in [1]; in [2]; in experiment [3]; on Glucocorticoid receptor; in experiment [4]) was above 30 µM throughout. Moreover, the AC50 (in [5]; at Vasopressin V1a receptor) was above 30 µM each time.
`CC(C)c1cccc(C(C)C)c1O` [PROPOFOL]: the AC50 (at Melanocortin receptor 3; in [1]; in experiment [2]; in [3]; in [4]) was above 30 µM in each case.
In the case of `CCOC(=O)c1c(CSc2ccccc2)n(C)c2cc(Br)c(O)c(CN(C)C)c12` [UMIFENOVIR], the AC50 at Melanocortin receptor 3 is above 30 µM; in experiment [1], above 30 µM; in experiment [2], above 30 µM; in [3], 9.1 µM; at Glucocorticoid receptor, above 30 µM; in [4] it was 21 µM. Moreover, the AC50 (in [5]; at Vasopressin V1a receptor) was above 30 µM each time.
For the compound `COC(=O)C1=C(C)NC(C)=C(C(=O)OCCN2CCN(C(c3ccccc3)c3ccccc3)CC2)C1c1cccc([N+](=O)[O-])c1` (configuration not stated) [MANIDIPINE 6300], the AC50 at Melanocortin receptor 3 is above 30 µM; in experiment [1] it was above 30 µM; in experiment [2], above 30 µM; in experiment [3], 23 µM; at Glucocorticoid receptor, above 30 µM; in [4] it was above 30 µM. The half-maximal activity concentration (AC50) (in experiment [5]; at Vasopressin V1a receptor) was above 30 µM each time.
As to `CCC1(c2ccc(N)cc2)CCC(=O)NC1=O` (configuration not stated) [AMINOGLUTETHIMIDE], the AC50 (at Melanocortin receptor 3; in experiment [1]; in experiment [2]; in [3]; at Glucocorticoid receptor; in experiment [4]) was above 30 µM in each case. The half-maximal activity concentration (AC50) in experiment [5] was above 30 µM.
In the case of `OC[C@H]1O[C@@H](n2cnc3c2NC=NC[C@H]3O)C[C@@H]1O` [PENTOSTATIN], the AC50 (on Melanocortin receptor 3; in experiment [1]; in experiment [2]; in experiment [3]; on Glucocorticoid receptor; in experiment [4]) was above 30 µM each time. For the same compound, the AC50 (in experiment [5]; on Vasopressin V1a receptor) was above 30 µM throughout.
Regarding `O=S1(=O)CCN(CN2CCS(=O)(=O)NC2)CN1` [TAUROLIDINE], the AC50 on Melanocortin receptor 3 was above 30 µM; in experiment [2], above 30 µM; in experiment [3], above 30 µM; at Glucocorticoid receptor, above 10 µM; in experiment [4] it was above 30 µM.
For the compound `C[N+](C)(C)CCOP(=O)([O-])OC[C@H](O)CO`, the AC50 (at Melanocortin receptor 3; in [1]; in experiment [2]; in experiment [3]; at Glucocorticoid receptor; in [4]) was above 30 µM each time. Besides, the concentration at half-maximal activity (AC50) in experiment [5] is above 30 µM.
On to `CC1=C(C(=O)OC(C)C)C(c2cccc([N+](=O)[O-])c2)C(C(=O)OC2CN(C(c3ccccc3)c3ccccc3)C2)=C(N)N1` (configuration not stated) [AZELNIDIPINE], for which the AC50 was above 30 µM at Melanocortin receptor 3; above 30 µM in experiment [1]; above 30 µM in experiment [2]; 26 µM in [3]; above 30 µM on Glucocorticoid receptor; 5.8 µM in [4]. Also, the AC50 (in experiment [5]; on Vasopressin V1a receptor) was above 30 µM in each case.
In the case of `CN[C@]1(c2ccccc2Cl)CCCCC1=O` [ESKETAMINE], the AC50 (at Melanocortin receptor 3; in [1]; in [2]; in experiment [3]; at Glucocorticoid receptor; in experiment [4]) was above 30 µM each time. The AC50 (in experiment [5]; on Vasopressin V1a receptor) was above 30 µM in each case.
As for `NC[C@H]1CC[C@H](C(=O)Oc2ccc(CCC(=O)O)cc2)CC1` [CETRAXATE], the AC50 in experiment [2] was above 30 µM.
`O=C1OC(OC(=O)c2cccnc2Nc2cccc(C(F)(F)F)c2)c2ccccc21` (configuration not stated) [TALNIFLUMATE]: the half-maximal activity concentration (AC50) (on Melanocortin receptor 3; in experiment [1]; in experiment [2]; in experiment [3]; at Glucocorticoid receptor; in experiment [4]) was above 30 µM each time. The AC50 (in [5]; at Vasopressin V1a receptor) was above 30 µM in each case.
Turning to `CCOC(=O)C1=C(C)NC(C)=C(C(=O)OCC)C1c1ccccc1/C=C/C(=O)OC(C)(C)C` [LACIDIPINE], the AC50 (at Melanocortin receptor 3; in experiment [1]; in [2]; in experiment [3]; at Glucocorticoid receptor; in experiment [4]) was above 30 µM each time. Besides, the AC50 in experiment [5] is above 30 µM.
As to `CN(C)C/C=C/C(=O)Nc1cc2c(Nc3ccc(F)c(Cl)c3)ncnc2cc1O[C@H]1CCOC1` [AFATINIB], the AC50 on Melanocortin receptor 3 was 28 µM; in experiment [1], 11 µM; in experiment [2], above 30 µM; in [3] it was 23.2 µM; at Glucocorticoid receptor it was above 30 µM; in [4] it was above 30 µM. Also, the AC50 (in experiment [5]; on Vasopressin V1a receptor) was above 30 µM in each case.
`CC(Cc1cccc(C(F)(F)F)c1)NCCOC(=O)c1ccccc1` (configuration not stated) [BENFLUOREX]: the AC50 is above 30 µM on Melanocortin receptor 3; above 30 µM in experiment [1]; 15 µM in [3]; above 30 µM at Glucocorticoid receptor; 23 µM in experiment [4]; above 30 µM in [5]. The same compound had an AC50 on Vasopressin V1a receptor above 30 µM.
